# Assay results reported in US20120220564A1, “SELECTIVE CALCIUM CHANNEL MODULATORS” (Zalicus Pharmaceuticals Ltd., priority 2009, published 2012).
# Legend:
# α1H (CaV 3.2) = target: T1, α1H (CaV 3.2) (Homo sapiens, UniProt O95180); assay: T-type calcium channel block, whole cell patch clamp; format: cell-based; settings: HEK cells, mainly non-inactivated protocol; values above 10,000 nM represented as 10000
# T1 construct: expressed in transfected cells; host or cells: HEK 293
# Procedure: (§1) T-type calcium channel blocking activity was assayed in human embryonic kidney cells, HEK 293 (Invitrogen), stably transfected with the T-type calcium channel subunits. Briefly, cells were cultured in Dulbecco's modified eagle medium (DMEM) supplemented with 10% fetal bovine serum, 200 U/ml penicillin, and 0.2 mg/mL streptomycin at 37° C. with 5% CO2. At 85% confluency, cells were split with 0.25% trypsin/1 mM EDTA and plated at 10% confluency on glass coverslips. At 12 hours, the medium was replaced, and the cells stably transfected using a standard calcium phosphate protocol and the appropriate calcium channel cDNA's. Fresh DMEM was supplied, and the cells transferred to 28° C./5% CO2. Cells were incubated for 1 to 2 days prior to whole cell recording.
# (§2) Standard patch-clamp techniques were employed to identify blockers of T-type currents. Briefly, previously described HEK cell lines stably expressing human α1G, α1H and α1I T-type channels were used for all the recordings (passage #: 4-20, 37° C., 5% CO2). Whole cell patch clamp experiments were performed using an Axopatch 200B amplifier (Axon Instruments, Burlingame, Calif.) linked to a personal computer equipped with pCLAMP software. Data were analyzed using Clampfit (Axon Instruments) and SigmaPlot 4.0 (Jandel Scientific). To obtain T-type currents, plastic dishes containing semi-confluent cells were positioned on the stage of a ZEISS AXIOVERT S100 microscope after replacing the culture medium with external solution (Table 2). Whole-cell patches were obtained using pipettes (borosilicate glass with filament, O.D.: 1.5 mm, I.D.: 0.86 mm, 10 cm length), fabricated on a SUTTER P-97 puller with resistance values of ˜5 MΩ (Table 3).
# (§3) T-type currents were reliably obtained by using two voltage protocols:
# (§4) In the non-inactivating protocol, the holding potential is set at −110 mV and with a pre-pulse at −100 mV for 1 second prior to the test pulse at −40 mV for 50 ms. In the inactivation protocol, the pre-pulse is at approximately −85 mV for 1 second, which inactivates about 15% of the T-type channels (Scheme 1).
# (§5) Test compounds were dissolved in external solution, 0.1-0.01% DMSO. After ˜10 minutes rest, they were applied by gravity close to the cell using a WPI microfil tubing. The “non-inactivated” pre-pulse was used to examine the resting block of a compound. The “inactivated” protocol was employed to study voltage-dependent block. However, the initial data shown below were mainly obtained using the non-inactivated protocol only. IC50 values are shown for various compounds of the invention in Table 4. […] In Table 4, empty cells indicate that inhibition by the compound was not detected.
# α1G (CaV 3.1) = target: T2, α1G (CaV 3.1) (Homo sapiens, UniProt O43497); assay: as above; format: cell-based; settings: HEK cells, mainly non-inactivated protocol; values above 10,000 nM represented as 10000
# T2 construct: expressed in transfected cells; host or cells: HEK 293
# T2 sequence (O43497 whole entry): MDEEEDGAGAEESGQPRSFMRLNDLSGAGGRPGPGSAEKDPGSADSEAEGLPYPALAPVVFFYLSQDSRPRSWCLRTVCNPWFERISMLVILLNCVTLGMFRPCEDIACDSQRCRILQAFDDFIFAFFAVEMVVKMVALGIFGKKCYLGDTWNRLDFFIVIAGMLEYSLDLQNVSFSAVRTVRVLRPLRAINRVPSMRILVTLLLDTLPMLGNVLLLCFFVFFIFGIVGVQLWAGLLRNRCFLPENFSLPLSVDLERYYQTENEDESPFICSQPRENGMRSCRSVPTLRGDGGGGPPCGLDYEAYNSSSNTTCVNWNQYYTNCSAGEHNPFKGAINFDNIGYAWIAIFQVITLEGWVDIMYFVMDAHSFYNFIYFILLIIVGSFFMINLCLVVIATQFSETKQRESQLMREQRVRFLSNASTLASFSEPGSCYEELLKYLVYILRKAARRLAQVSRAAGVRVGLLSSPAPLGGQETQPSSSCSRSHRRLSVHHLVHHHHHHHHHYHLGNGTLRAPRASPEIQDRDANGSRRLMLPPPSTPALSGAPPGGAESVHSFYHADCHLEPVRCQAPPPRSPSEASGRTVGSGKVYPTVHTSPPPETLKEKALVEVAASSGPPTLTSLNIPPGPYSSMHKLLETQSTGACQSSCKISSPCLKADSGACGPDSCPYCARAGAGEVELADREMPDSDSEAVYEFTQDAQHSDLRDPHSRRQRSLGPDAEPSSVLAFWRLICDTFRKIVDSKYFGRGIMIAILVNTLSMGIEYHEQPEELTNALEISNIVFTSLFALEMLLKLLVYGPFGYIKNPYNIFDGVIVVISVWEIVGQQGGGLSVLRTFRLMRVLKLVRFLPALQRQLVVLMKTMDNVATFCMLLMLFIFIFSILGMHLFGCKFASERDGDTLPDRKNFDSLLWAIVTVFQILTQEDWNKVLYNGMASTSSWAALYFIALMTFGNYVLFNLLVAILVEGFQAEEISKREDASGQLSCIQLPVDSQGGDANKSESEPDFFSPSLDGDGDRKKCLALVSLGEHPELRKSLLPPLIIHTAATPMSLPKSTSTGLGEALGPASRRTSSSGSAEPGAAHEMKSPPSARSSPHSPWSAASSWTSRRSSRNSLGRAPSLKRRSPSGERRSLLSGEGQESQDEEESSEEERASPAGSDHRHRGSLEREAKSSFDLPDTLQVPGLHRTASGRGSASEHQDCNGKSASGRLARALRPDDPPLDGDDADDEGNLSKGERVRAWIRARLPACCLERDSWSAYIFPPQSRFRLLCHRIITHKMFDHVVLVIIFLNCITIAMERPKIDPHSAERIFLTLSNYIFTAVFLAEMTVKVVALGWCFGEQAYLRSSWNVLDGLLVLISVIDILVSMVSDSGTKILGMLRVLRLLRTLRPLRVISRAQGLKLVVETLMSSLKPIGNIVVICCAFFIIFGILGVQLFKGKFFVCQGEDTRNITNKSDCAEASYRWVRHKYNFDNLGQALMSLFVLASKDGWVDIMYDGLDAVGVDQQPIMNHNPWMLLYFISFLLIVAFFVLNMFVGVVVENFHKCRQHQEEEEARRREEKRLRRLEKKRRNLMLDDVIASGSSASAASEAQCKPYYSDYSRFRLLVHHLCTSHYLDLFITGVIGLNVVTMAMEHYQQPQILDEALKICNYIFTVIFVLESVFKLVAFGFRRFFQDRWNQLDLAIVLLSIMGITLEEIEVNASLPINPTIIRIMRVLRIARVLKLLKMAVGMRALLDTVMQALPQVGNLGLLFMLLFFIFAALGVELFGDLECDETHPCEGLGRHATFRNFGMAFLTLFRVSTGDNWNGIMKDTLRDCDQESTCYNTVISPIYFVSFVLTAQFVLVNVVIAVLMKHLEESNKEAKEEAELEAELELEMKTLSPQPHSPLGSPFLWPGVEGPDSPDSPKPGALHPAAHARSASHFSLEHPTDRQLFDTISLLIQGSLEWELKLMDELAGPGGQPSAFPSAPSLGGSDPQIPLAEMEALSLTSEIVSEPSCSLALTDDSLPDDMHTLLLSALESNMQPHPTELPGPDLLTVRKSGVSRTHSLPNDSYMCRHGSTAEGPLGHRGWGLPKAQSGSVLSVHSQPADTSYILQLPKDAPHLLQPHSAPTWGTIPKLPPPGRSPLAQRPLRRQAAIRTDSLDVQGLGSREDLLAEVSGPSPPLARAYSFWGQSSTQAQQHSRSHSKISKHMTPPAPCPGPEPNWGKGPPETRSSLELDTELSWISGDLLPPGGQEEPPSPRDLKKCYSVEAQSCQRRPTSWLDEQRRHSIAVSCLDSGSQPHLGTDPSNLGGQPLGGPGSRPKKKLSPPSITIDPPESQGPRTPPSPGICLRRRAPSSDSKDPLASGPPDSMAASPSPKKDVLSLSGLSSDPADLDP
# Procedure: as §1, §2, §3, §4, §5
# 6 Hz psychomotor seizure = 6 Hz psychomotor seizure model of partial epilepsy; format: in vivo, mice; parameters: concentration or dose not given beside the values
# Source text: Compounds can also be evaluated for the protection against seizures induced by a 6 Hz, 0.2 ms rectangular pulse width of 3 s duration, at a stimulus intensity of 32 mA (CC97) applied to the cornea of male CF1 mice (20-30 g) according to procedures described by Barton et al, “Pharmacological Characterization of the 6 Hz Psychomotor Seizure Model of Partial Epilepsy,” Epilepsy Res. 47(3):217-27 (2001). Seizures are characterised by the expression of one or more of the following behaviours: stun, forelimb clonus, twitching of the vibrissae and Straub-tail immediately following electrical stimulation.
# [1] = tested on: minimal muscular or neurological impairment (rotarod); assay: Mouse rotarod assay; format: in vivo, mice
# Procedure: To assess a compound's undesirable side effects (toxicity), animals can be monitored for overt signs of impaired neurological or muscular function. In mice, the rotarod procedure (Dunham and Miya, J. Am. Pharmacol. Assoc. 46:208-209 (1957)) is used to disclose minimal muscular or neurological impairment (MMI). When a mouse is placed on a rod that rotates at a speed of 6 rpm, the animal can maintain its equilibrium for long periods of time. The animal is considered toxic if it falls off this rotating rod three times during a 1-min period.
# T1 sequence (O95180 whole entry): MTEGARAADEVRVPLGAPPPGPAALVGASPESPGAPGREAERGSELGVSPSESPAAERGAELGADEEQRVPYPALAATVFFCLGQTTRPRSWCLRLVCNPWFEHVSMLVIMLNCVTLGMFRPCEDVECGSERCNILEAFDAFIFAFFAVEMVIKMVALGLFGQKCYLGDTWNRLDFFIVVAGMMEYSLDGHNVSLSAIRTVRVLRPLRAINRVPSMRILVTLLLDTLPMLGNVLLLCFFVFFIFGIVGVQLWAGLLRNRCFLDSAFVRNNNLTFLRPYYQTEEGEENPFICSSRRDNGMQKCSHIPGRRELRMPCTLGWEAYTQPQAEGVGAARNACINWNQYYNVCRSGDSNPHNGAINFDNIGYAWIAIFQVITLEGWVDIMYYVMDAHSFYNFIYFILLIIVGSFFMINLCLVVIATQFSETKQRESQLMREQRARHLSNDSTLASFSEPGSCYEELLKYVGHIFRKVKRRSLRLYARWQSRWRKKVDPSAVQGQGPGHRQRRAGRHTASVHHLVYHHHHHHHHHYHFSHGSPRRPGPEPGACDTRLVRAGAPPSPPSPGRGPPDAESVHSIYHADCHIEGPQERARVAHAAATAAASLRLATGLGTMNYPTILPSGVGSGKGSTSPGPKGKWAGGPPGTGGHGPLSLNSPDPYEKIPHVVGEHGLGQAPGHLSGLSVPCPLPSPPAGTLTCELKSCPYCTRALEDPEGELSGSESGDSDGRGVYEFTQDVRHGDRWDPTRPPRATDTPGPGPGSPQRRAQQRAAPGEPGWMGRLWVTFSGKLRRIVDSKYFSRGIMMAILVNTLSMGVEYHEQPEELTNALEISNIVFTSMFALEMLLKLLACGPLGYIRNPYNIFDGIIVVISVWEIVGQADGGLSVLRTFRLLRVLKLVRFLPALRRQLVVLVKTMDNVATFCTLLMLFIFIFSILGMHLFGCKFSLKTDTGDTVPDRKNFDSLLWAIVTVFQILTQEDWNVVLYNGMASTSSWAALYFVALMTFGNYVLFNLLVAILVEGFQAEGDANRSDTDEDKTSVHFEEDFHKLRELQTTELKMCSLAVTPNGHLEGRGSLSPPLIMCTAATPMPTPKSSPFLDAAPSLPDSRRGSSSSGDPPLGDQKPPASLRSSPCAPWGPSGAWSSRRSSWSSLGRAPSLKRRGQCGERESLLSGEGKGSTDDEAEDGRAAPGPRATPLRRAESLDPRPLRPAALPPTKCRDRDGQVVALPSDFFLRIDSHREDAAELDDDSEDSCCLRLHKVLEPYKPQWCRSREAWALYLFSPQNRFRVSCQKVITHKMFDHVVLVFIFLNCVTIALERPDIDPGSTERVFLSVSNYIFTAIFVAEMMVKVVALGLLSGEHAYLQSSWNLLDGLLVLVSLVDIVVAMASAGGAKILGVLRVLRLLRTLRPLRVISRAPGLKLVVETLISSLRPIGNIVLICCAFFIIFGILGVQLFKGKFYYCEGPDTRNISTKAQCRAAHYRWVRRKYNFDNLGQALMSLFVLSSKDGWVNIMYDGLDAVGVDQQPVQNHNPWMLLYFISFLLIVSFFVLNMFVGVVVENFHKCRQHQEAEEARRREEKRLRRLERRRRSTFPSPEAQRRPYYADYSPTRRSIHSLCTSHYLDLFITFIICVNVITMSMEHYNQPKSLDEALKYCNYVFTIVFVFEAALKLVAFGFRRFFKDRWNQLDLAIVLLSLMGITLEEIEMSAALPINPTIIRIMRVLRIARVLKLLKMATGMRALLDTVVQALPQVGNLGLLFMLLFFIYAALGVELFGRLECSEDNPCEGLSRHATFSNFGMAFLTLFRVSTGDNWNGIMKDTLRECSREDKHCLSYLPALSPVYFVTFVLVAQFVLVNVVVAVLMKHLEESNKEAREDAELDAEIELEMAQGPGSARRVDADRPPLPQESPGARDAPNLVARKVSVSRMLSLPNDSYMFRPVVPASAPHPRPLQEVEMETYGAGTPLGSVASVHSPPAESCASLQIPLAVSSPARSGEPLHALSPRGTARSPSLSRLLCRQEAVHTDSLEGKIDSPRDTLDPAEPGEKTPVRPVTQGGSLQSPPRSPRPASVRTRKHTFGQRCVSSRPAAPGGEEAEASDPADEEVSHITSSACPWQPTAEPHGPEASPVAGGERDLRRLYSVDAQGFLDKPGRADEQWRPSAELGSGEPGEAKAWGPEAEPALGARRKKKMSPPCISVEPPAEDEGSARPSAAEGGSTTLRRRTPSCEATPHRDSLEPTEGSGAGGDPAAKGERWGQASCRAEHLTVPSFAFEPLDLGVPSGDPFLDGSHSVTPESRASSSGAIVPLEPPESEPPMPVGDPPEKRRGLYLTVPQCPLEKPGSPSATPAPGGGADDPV
smiles,measurement,setting,value
"N[C@@H]1CCCC[C@@H]1C(=O)N1CCC(O)(CC(=O)Nc2cc(C(F)(F)F)cc(C(F)(F)F)c2)CC1 (racemic) [Compound 52, cis-2-(1-(2-aminocyclohexanecarbonyl)-4-hydroxypiperidin-4-yl)-N-(3,5-bis(trifluoromethyl)phenyl)acetamide]",IC50,α1H (CaV 3.2),0.82 µM
"N[C@@H]1CCCC[C@H]1C(=O)N1CCC(O)(CC(=O)Nc2cc(C(F)(F)F)cc(C(F)(F)F)c2)CC1 (relative stereo) [Compound 51, trans-2-(1-(2-aminocyclohexanecarbonyl)-4-hydroxypiperidin-4-yl)-N-(3,5-bis(trifluoromethyl)phenyl)acetamide]",IC50,α1H (CaV 3.2),0.49 µM
"N[C@H]1CCCC[C@@H]1C(=O)N1CCC(CC(=O)Nc2ccc(F)cc2)CC1 (racemic) [Compound 11, trans-2-(1-(2-aminocyclohexanecarbonyl)piperidin-4-yl)-N-(4-fluorophenyl)acetamide]",IC50,α1H (CaV 3.2),> 10 µM
"N[C@H]1CCCC[C@H]1C(=O)N1CCC(CC(=O)Nc2cc(C(F)(F)F)cc(C(F)(F)F)c2)CC1 (racemic) [Compound 5, cis-2-(1-(2-aminocyclohexanecarbonyl)piperidin-4-yl)-N-(3,5-bis(trifluoromethyl)phenyl)acetamide]",IC50,α1G (CaV 3.1),> 10 µM
same,IC50,α1H (CaV 3.2),0.1 µM
"CC1(C(=O)N2CCC(CC(=O)Nc3cc(C(F)(F)F)cc(C(F)(F)F)c3)C2)CCCCN1 (stereo not shown) [Compound 34, N-(3,5-bis(trifluoromethyl)phenyl)-2-(1-(2-methylpiperidine-2-carbonyl)pyrrolidin-3-yl)acetamide]",IC50,α1G (CaV 3.1),4.4 µM
same,IC50,α1H (CaV 3.2),1.94 µM
N[C@@H]1CCCC[C@@H]1C(=O)N1CCC(CNC(=O)Nc2cc(C(F)(F)F)cc(C(F)(F)F)c2)CC1 (racemic) [Compound 58],IC50,α1H (CaV 3.2),0.25 µM
"NC1(CC(=O)N2CCC(NC(=O)Nc3cc(C(F)(F)F)cc(C(F)(F)F)c3)CC2)CCCCC1 [Compound 64, 1-(1-(2-(1-aminocyclohexyl)acetyl)piperidin-4-yl)-3-(3,5-bis(trifluoromethyl)phenyl)urea]",IC50,α1H (CaV 3.2),0.36 µM
"NC1(CC(=O)N2CCC(CNC(=O)Nc3cc(C(F)(F)F)cc(C(F)(F)F)c3)CC2)CCCCC1 [Compound 59, 1-((1-(2-(1-aminocyclohexyl)acetyl)piperidin-4-yl)methyl)-3-(3,5-bis(trifluoromethyl)phenyl)urea]",IC50,α1H (CaV 3.2),0.03 µM
same,Epilepsy 6 Hz (% Protected),6 Hz psychomotor seizure; 0.25 hr,25%
same,Epilepsy 6 Hz (% Protected),6 Hz psychomotor seizure; 0.5 hr,50%
same,Epilepsy 6 Hz (% Protected),6 Hz psychomotor seizure; 1 hr,100%
same,Rotarod Assay (% impaired),[1]; 0.25 hr,0%
same,Rotarod Assay (% impaired),[1]; 0.5 hr,25%
same,Rotarod Assay (% impaired),[1]; 1 hr,75%
same,Rotarod Assay (% impaired),[1]; 2 hr,100%
same,Rotarod Assay (% impaired),[1]; 4 hr,100%
"O=C(CC1(O)CCN(C(=O)[C@H]2CCCCN2)CC1)Nc1cc(C(F)(F)F)cc(C(F)(F)F)c1 [Compound 53, (R)-N-(3,5-bis(trifluoromethyl)phenyl)-2-(4-hydroxy-1-(piperidine-2-carbonyl)piperidin-4-yl)acetamide]",IC50,α1H (CaV 3.2),1.86 µM
"O=C(Nc1cc(C(F)(F)F)cc(C(F)(F)F)c1)NC1CCN(C(=O)[C@H]2CCCCN2)CC1 [Compound 61, (R)-1-(3,5-bis(trifluoromethyl)phenyl)-3-(1-(piperidine-2-carbonyl)piperidin-4-yl)urea]",IC50,α1H (CaV 3.2),0.69 µM
"O=C(Nc1cc(C(F)(F)F)cc(C(F)(F)F)c1)NC1CCN(C(=O)[C@@H]2CCCCN2)CC1 [Compound 60, (S)-1-(3,5-bis(trifluoromethyl)phenyl)-3-(1-(piperidine-2-carbonyl)piperidin-4-yl)urea]",IC50,α1H (CaV 3.2),0.95 µM
O=C(Nc1cc(C(F)(F)F)cc(C(F)(F)F)c1)OCC1CCN(C(=O)[C@H]2CCCCN2)CC1 [Compound 69],Epilepsy 6 Hz (% Protected),6 Hz psychomotor seizure; 0.25 hr,75%
same,Epilepsy 6 Hz (% Protected),6 Hz psychomotor seizure; 0.5 hr,75%
same,Epilepsy 6 Hz (% Protected),6 Hz psychomotor seizure; 1 hr,50%
same,Epilepsy 6 Hz (% Protected),6 Hz psychomotor seizure; 2 hr,100%
same,Epilepsy 6 Hz (% Protected),6 Hz psychomotor seizure; 4 hr,33%
same,Rotarod Assay (% impaired),[1]; 0.25 hr,0%
same,Rotarod Assay (% impaired),[1]; 0.5 hr,50%
same,Rotarod Assay (% impaired),[1]; 1 hr,50%
same,Rotarod Assay (% impaired),[1]; 2 hr,100%
same,Rotarod Assay (% impaired),[1]; 4 hr,100%
"N[C@H]1CCCC[C@@H]1C(=O)N1CCC(CC(=O)Nc2cc(F)c(F)cc2F)CC1 (racemic) [Compound 14, trans-2-(1-(2-aminocyclohexanecarbonyl)piperidin-4-yl)-N-(2,4,5-trifluorophenyl)acetamide]",IC50,α1H (CaV 3.2),> 10 µM
"N[C@H]1CCCC[C@@H]1C(=O)N1CCC(CC(=O)Nc2ccc(OC(F)(F)F)cc2)CC1 (racemic) [Compound 18, trans-2-(1-(2-aminocyclohexanecarbonyl)piperidin-4-yl)-N-(4-(trifluoromethoxy)phenyl)acetamide]",IC50,α1H (CaV 3.2),2.73 µM
N[C@@H]1CCCC[C@@H]1C(=O)N1CCC(CC(=O)Nc2cc(C(F)(F)F)cc(C(F)(F)F)c2)CC1 [Compound 73],Epilepsy 6 Hz (% Protected),6 Hz psychomotor seizure; 0.25 hr,100%
same,Epilepsy 6 Hz (% Protected),6 Hz psychomotor seizure; 0.5 hr,100%
same,Epilepsy 6 Hz (% Protected),6 Hz psychomotor seizure; 1 hr,100%
same,Epilepsy 6 Hz (% Protected),6 Hz psychomotor seizure; 4 hr,100%
same,Rotarod Assay (% impaired),[1]; 0.25 hr,100%
same,Rotarod Assay (% impaired),[1]; 0.5 hr,100%
same,Rotarod Assay (% impaired),[1]; 1 hr,100%
same,Rotarod Assay (% impaired),[1]; 2 hr,100%
same,Rotarod Assay (% impaired),[1]; 4 hr,75%
"N[C@@H]1CCCC[C@H]1C(=O)N1CCC(NC(=O)Nc2cc(C(F)(F)F)cc(C(F)(F)F)c2)CC1 (racemic) [Compound 62, trans-2-(1-(2-aminocyclohexanecarbonyl)piperidin-4-yl)-3-(3,5-bis(trifiuoromethyl)phenyl)urea]",IC50,α1H (CaV 3.2),0.27 µM
"O=C(CC1(O)CCN(C(=O)[C@@H]2CCCCN2)CC1)Nc1cc(C(F)(F)F)cc(C(F)(F)F)c1 [Compound 50, (S)-N-(3,5-bis(trifluoromethyl)phenyl)-2-(4-hydroxy-1-(piperidine-2-carbonyl)piperidin-4-yl)acetamide]",IC50,α1H (CaV 3.2),0.52 µM
N[C@@H]1CCCC[C@H]1C(=O)N1CCC(CNC(=O)Nc2cc(C(F)(F)F)cc(C(F)(F)F)c2)CC1 (racemic) [Compound 57],IC50,α1H (CaV 3.2),0.25 µM
CC1(CC(=O)Nc2cc(C(F)(F)F)cc(C(F)(F)F)c2)CCN(C(=O)[C@H]2CCCCN2)CC1 [Compound 68],Epilepsy 6 Hz (% Protected),6 Hz psychomotor seizure; 0.25 hr,50%
same,Epilepsy 6 Hz (% Protected),6 Hz psychomotor seizure; 0.5 hr,75%
same,Epilepsy 6 Hz (% Protected),6 Hz psychomotor seizure; 1 hr,100%
same,Epilepsy 6 Hz (% Protected),6 Hz psychomotor seizure; 2 hr,50%
same,Epilepsy 6 Hz (% Protected),6 Hz psychomotor seizure; 4 hr,0%
"N[C@@H]1CCCC[C@@H]1C(=O)N1CCC(NC(=O)Nc2cc(C(F)(F)F)cc(C(F)(F)F)c2)CC1 (racemic) [Compound 63, cis-2-(1-(2-aminocyclohexanecarbonyl)piperidin-4-yl)-3-(3,5-bis(trifluoromethyl)phenyl)urea]",IC50,α1H (CaV 3.2),0.43 µM
N[C@H]1CCCC[C@H]1C(=O)N1CCC(CNC(=O)c2cc(C(F)(F)F)cc(C(F)(F)F)c2)CC1 (racemic) [Compound 49],IC50,α1H (CaV 3.2),1.93 µM
